Key:
Assay in all cases: relative viability (nuclei count vs DMSO), 5 days (fraction); higher = more cells survive
R406 + Linsitinib = compound: COc1cc(Nc2ncc(F)c(Nc3ccc4c(n3)NC(=O)C(C)(C)O4)n2)cc(OC)c1OC [R406] + C[C@]1(O)C[C@@H](c2nc(-c3ccc4ccc(-c5ccccc5)nc4c3)c3c(N)nccn32)C1 [Linsitinib] (partner 1 µM)
How it was run: (§1)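 Relative viability equals treated-well nuclei counts divided by vehicle-well nuclei counts. Counts came from 4× images of lung cancer cell lines grown in 1536-well plates for 5 days after pin-tool dosing on the day after seeding. Dosing used one drug alone or a fixed anchor-drug dose plus five library-drug doses (not always all listed) in √10 steps, and values are medians of duplicate plates.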

Daporinad + Crizotinib = compound: O=C(/C=C/c1cccnc1)NCCCCC1CCN(C(=O)c2ccccc2)CC1 [Daporinad] + C[C@@H](Oc1cc(-c2cnn(C3CCNCC3)c2)cnc1N)c1c(Cl)ccc(F)c1Cl [Crizotinib] (partner 1 µM)
How it was run: as §1

Daporinad + Pemetrexed = compound: O=C(/C=C/c1cccnc1)NCCCCC1CCN(C(=O)c2ccccc2)CC1 [Daporinad] + Nc1nc2[nH]cc(CCc3ccc(C(=O)N[C@@H](CCC(=O)O)C(=O)O)cc3)c2c(=O)[nH]1 [Pemetrexed] (partner 0.2 µM)
How it was run: as §1

Daporinad + Olaparib = compound: O=C(/C=C/c1cccnc1)NCCCCC1CCN(C(=O)c2ccccc2)CC1 [Daporinad] + O=C(c1cc(Cc2n[nH]c(=O)c3ccccc23)ccc1F)N1CCN(C(=O)C2CC2)CC1 [Olaparib] (partner 8 µM)
How it was run: as §1

Cell Line	relative viability (R406 + Linsitinib; first compound 0.08 µM)	relative viability (R406 + Linsitinib; first compound 0.253 µM)	relative viability (R406 + Linsitinib; first compound 0.8 µM)	relative viability (R406 + Linsitinib; first compound 2.53 µM)	relative viability (R406 + Linsitinib; first compound 8 µM)	relative viability (Daporinad + Crizotinib; first compound 0.0005 µM)	relative viability (Daporinad + Crizotinib; first compound 0.001581 µM)	relative viability (Daporinad + Crizotinib; first compound 0.005 µM)	relative viability (Daporinad + Crizotinib; first compound 0.01581 µM)	relative viability (Daporinad + Pemetrexed; first compound 0.0005 µM)	relative viability (Daporinad + Pemetrexed; first compound 0.001581 µM)	relative viability (Daporinad + Pemetrexed; first compound 0.005 µM)	relative viability (Daporinad + Pemetrexed; first compound 0.01581 µM)	relative viability (Daporinad + Olaparib; first compound 0.0005 µM)	relative viability (Daporinad + Olaparib; first compound 0.001581 µM)	relative viability (Daporinad + Olaparib; first compound 0.005 µM)	relative viability (Daporinad + Olaparib; first compound 0.01581 µM)
A-427	1.09	1.19	1.17	1.07	0.964	0.857	0.917	0.994	0.749	0.981	1.02	0.937	0.662	0.665	0.713	0.622	0.571
NCI-H2347	0.928	1.01	1.06	0.848	0.71	0.841	0.892	0.826	0.775	0.441	0.402	0.472	0.454	0.543	0.604	0.571	0.416
NCI-H1355	0.83	0.83	0.94	0.588	0.596	1.08	1.1	1.22	1.1	1	1.1	1.03	0.873	0.693	0.737	0.6	0.479
NCI-H1944	1.21	1.24	1.22	0.879	0.741	1.16	1.13	1.24	1.18	0.607	0.716	0.706	0.577	0.407	0.393	0.42	0.386
RERF-LC-KJ	0.848	0.846	1.03	0.657	0.695	0.787	0.861	1.06	0.803	0.465	0.482	0.587	0.568	0.867	0.896	0.82	0.757
NCI-H2228	0.729	0.813	0.889	0.273	0.154	0.505	0.548	0.625	0.636	0.342	0.307	0.304	0.406	0.459	0.715	0.708	0.584
HOP-62	0.773	0.97	0.936	0.684	0.865	–	1.05	0.994	0.789	0.297	0.32	0.284	0.282	0.258	0.287	0.188	0.15
HARA	0.772	0.991	1.04	0.819	0.288	1.05	1.07	1.07	0.291	0.24	0.258	0.227	0.276	0.726	0.425	0.466	0.28
PC-14	0.941	1.05	1.01	0.852	0.8	0.911	0.876	0.913	0.651	0.0976	0.126	0.153	0.146	0.242	0.194	0.168	0.087
NCI-H1755	0.924	1.02	1.02	0.779	0.688	0.83	0.859	0.919	0.843	0.421	0.397	0.454	0.469	0.838	0.891	0.84	0.843
HCC-78	0.534	0.394	0.544	0.489	0.25	0.333	0.362	0.331	0.428	0.869	0.897	0.798	0.874	0.531	0.786	0.649	0.559
NCI-H322M	0.879	0.814	0.983	0.523	0.472	0.847	1.03	0.985	0.592	0.638	0.634	0.635	0.46	0.547	0.567	0.547	0.516
NCI-H3122	0.976	0.921	0.982	1.01	0.98	0.237	0.29	0.261	0.238	0.199	0.185	0.185	0.203	0.564	0.565	0.501	0.421
NCI-H441	0.377	0.609	0.662	0.411	0.47	0.79	0.916	1.1	1.15	0.242	0.243	0.268	0.291	0.488	0.554	0.344	0.237
COR-L23	0.886	1.04	1.04	0.731	0.405	0.819	0.651	0.568	0.153	0.194	0.198	0.208	0.196	0.156	0.245	0.19	0.155
NCI-H2087	1.29	1.04	0.914	1.03	0.709	0.75	0.708	0.945	0.674	0.675	0.739	0.711	0.764	0.69	0.575	0.205	0.236
LC-2-ad	0.828	0.832	0.729	0.385	0.158	0.501	0.513	0.491	0.46	0.263	0.27	0.285	0.256	0.664	0.662	0.441	0.398
NCI-H1915	1.09	1.12	1.09	1.09	0.98	0.911	0.933	0.982	0.915	0.474	0.505	0.499	0.174	0.265	0.247	0.193	0.184

From the supplement of paper PMC10307832
